Values of other authors as cited in US20150079169A1 (POZEN INC., priority 2011, published 2015).
One block for each compound: values may come before it.

Key:
[1] = for major cardiovascular events (ischaemic stroke, MI, or vascular death), average rate per year: 19,185 people with history of MI, stroke, or peripheral arterial disease, clopidogrel 75 mg daily versus aspirin 325 mg daily
[2] = test system: human plasma proteins
[3] = clopidogrel therapy
[4] = oral dose of 14C-labeled clopidogrel in humans, five days after dosing
[5] = repeated oral doses of 75 mg clopidogrel (base)

SMILES: CC(=O)Oc1ccccc1C(=O)O [aspirin]
major cardiovascular events (ischaemic stroke, MI, or vascular death), average rate per year [1]: 6% | reduction of incidence of non-fatal myocardial infarction, non-fatal stroke and vascular death ([1]; people with known vascular disease): about a quarter

SMILES: O=C(O)[C@H](c1ccccc1Cl)N1CCc2sccc2C1 [main circulating metabolite]
reversible binding in vitro to human plasma proteins [2]: 94%

reversible binding in vitro to human plasma proteins [2]: 98% | Absorption (based on urinary excretion of clopidogrel-related metabolites): at least 50% | elimination half-life of the active metabolite (in vivo): about eight hours | time of peak plasma levels (in vivo): 30 to 60 min | excreted in the feces [4]: approximately 46% | excreted in the urine [4]: approximately 50% | plasma concentrations of the parent compound (below the quantification limit) (repeated 75 mg oral doses, beyond two hours after dosing): < 0.258 ng/mL | peak plasma levels of the main circulating metabolite [5]: approx. 3 mg/L | time of peak plasma levels of the main circulating metabolite [5]: approximately one hour after dosing
SMILES: COC(=O)[C@H](c1ccccc1Cl)N1CCc2sccc2C1 [clopidogrel]
RRR of major cardiovascular events versus aspirin ([1]; 95% CI 0.30% to 16.5%, P=0.04): 8.7% | OR for cardiovascular events compared with aspirin ([1]; 95% CI 0.84 to 0.98): 0.91 | major cardiovascular events (ischaemic stroke, MI, or vascular death), average rate per year [1]: 5% | greater risk for major adverse cardiovascular events in patients with CYP2C19 variants ([1]; patients with variants in cytochrome P-450 2C19): 3.58 fold | incidence of gastrointestinal hemorrhage [3]: 2.0 % annually

effect of administration with meals on bioavailability of clopidogrel (assessed by pharmacokinetics of the main circulating metabolite): did not significantly modify
SMILES: COC(=O)[C@H](c1ccccc1Cl)N1CCc2sccc2C1 [clopidogrel bisulfate]
